According to patent EP0330874A2, “Antibacterial and antitumor agents LL-E33288 epsilon-I and LL-E33288-epsilonBr, with processes and intermediates for producing said agents” (AMERICAN CYANAMID COMPANY, priority 1988, dated 1989):

Test system: lymphocytic leukemia P388
Experiment: Lymphocytic Leukemia P388 Test
Type: in vivo, BDFl mice
Details: for Median Survival: mice, 30 days observation; for T/C x 100: ratio of survival time treated/control, 125 or over = significant
From the text: Certain in vivo testing systems and protocols have been developed by the National Cancer Institute for testing compounds to determine their suitability as antineoplastic agents. These have been reported in "Cancer Chemotherapy Reports", Part III, Volume 3, No. 2 (1972), Geran, et al. These protocols have established standardized screening tests which are generally followed in the field of testing for antitumor agents. Of these systems, lymphocytic leukemia P388 is particularly significant to the present invention. This neoplasm is utilized for testing as transplantable tumors in mice. Significant antitumor activity shown in this protocol by a percentage increase of mean survival times of the treated(T) animals over the control(C) animals is indicative of similar results in human leukemias and solid tumors.
The animals used were BDFl mice, all of one sex, weighing a minimum of 17 g and all within a 3 g weight range. There were 5 or 6 mice per test group. The tumor transplant was by intraperitoneal injection of 0.5 ml of dilute ascitic fluid containing 10⁶ cells of lymphocytic leukemia P388. The test compounds were administered intraperitoneally at a volume of 0.5 ml in 0.2% Klucel in normal saline on days 1, 5 and 9 (relative to tumor inoculation) at the indicated doses. The mice were weighed and survivors recorded on a regular basis for 30 days. The median survival time and the ratio of survival time for treated(T)/control(C) animals were calculated. The positive control compound for LL-E33288ε-I was 1,4-dihydroxy-5,8-bis[[2-(2-hydroxyethylamino)ethyl]amino]anthraquinone, dihydrochloride (U. S. Patent 4,197,249). The positive control compound for dethiomethylγ₁-I was 1,4-bis[2-(2-hydroxyethylamino)ethylamino]-5,8-dihydroxyanthroquinone dihydrochloride, Lederle Laboratories, Pearl River, New York ("Novantrone"). The controls were given as an intraperitoneal injections in 0.5 ml of 0.2% Klucel on days 1, 5 and 9 at the indicated doses.
If T/C X 100 (%) is 125 or over, the tested compound is considered to have significant anti-tumor activity.

[1] = Dose 0.4 mg/kg intraperitoneally on days 1, 5 and 9
[2] = Dose 0.8 mg/kg intraperitoneally on days 1, 5 and 9
[3] = Dose 1.6 mg/kg intraperitoneally on days 1, 5 and 9

SMILES: Cl.Cl.O=C1c2c(O)ccc(O)c2C(=O)c2c(NCCNCCO)ccc(NCCNCCO)c21 [Positive Control, 1,4-dihydroxy-5,8-bis[[2-(2-hydroxyethylamino)ethyl]amino]anthraquinone, dihydrochloride]
- Median Survival [1]: 21.5 days
- T/C x 100 [1]: 215%
- Median Survival [2]: >30 days
- T/C x 100 [2]: >300%
- Median Survival [3]: 27 days
- T/C x 100 [3]: 270%
